Data taken from US9051351B2, “Hepatocyte growth factor mimics as therapeutic agents” (Washington State University, priority 2011, dated 2015).
Where two headings read alike, the source gives them in different places. Where a SMILES comes first, the peptide text is derived from it. [ ]: non-standard residue; d: D form. The star is where a group is joined. Hexanoyl = CCCCCC(=O)*; Ahx = NCCCCCC(=O)O

Assay: Dihexa pharmacokinetics in rats (IV, intraperitoneal)
Assay type: in vivo, rat
Description: Ethics approval for animal experimentation was obtained from Washington State University.
Dihexa solutions were prepared by suspending dry stock dihexa in DMSO at 1 mg/mL and subsequent serial dilutions in 50% DMSO or HPLC grade water for the final concentrations specified. Stock dihexa is kept in powder form and stored at −20° C. Quality control (QC) samples were prepared by spiking fresh rat plasma with an appropriate dilution of dihexa for the final concentration of dihexa specified, keeping a 10:1 ratio of plasma to dihexa solution (final DMSO concentration 5%). The compounds, Nle^1-Ang-IV and Nle-YI-(6) aminohexanoic amide, molecules very similar in structure and properties to dihexa, were used as internal standards and were prepared the same way.
The proteins present in the plasma samples were precipitated using three volumes of ice-cold acetonitrile. Internal standards were then added and the samples were vortexed for approximately 10 seconds. Samples were then centrifuged at 5000 RPM for 5 minutes. The supernatants were transferred to new tubes and stored until use at −20° C. Samples were then concentrated to a volume of approximately 100 ul. 200 ul HPLC grade water was added to each sample and the samples were transferred to autosampler vials.
Male Sprague Dawley rats were catheterized as described in the Animals and Surgical Procedures section. […] The typical injection volume was 200 μL yielding an initial estimated DMSO concentration in blood of 0.46%. After dosing, blood samples were collected as described in Table 7.
The blood samples were collected into polypropylene microcentrifuge tubes and cooled on ice for not more than 1 hour. The samples were centrifuged at 5000 RPM for 7 minutes and 80 μL plasma were transferred into previously prepared tubes containing 240 μL ice-cold acetonitrile. The samples were vortexed vigorously for 30 seconds and held on ice. 100 μg/mL Nle-YI-(6) aminohexanoic amide in 10 μL was used as an internal standard and added to each sample on ice.
10 μL of each serial dilution was then added to 90 μL of blank plasma for final concentrations of 0.01, 0.02, 0.05, 0.1, 0.2, 1, 10, 20, 50 and 100 μg/mL. 80 μL of each plasma sample was transferred to previously prepared tubes containing 240 μL ice-cold acetonitrile and vortexed vigorously. 10 μL containing 100 μg/mL Nle-YI-(6) aminohexanoic amide as an internal standard, was added to each sample on ice. The standard curve plasma samples were then stored at −20° C. and further processed alongside the pharmacokinetic study samples according to the method described above.
The analytical column that was used was n C18 (100 mm×2.1 mm). The mobile phase consisted of HPLC grade acetonitrile and water with 0.1% acetic acid. […] For MS analysis, a positive ion mode (SIM) was used to monitor the m/z of dihexa at […] (dihexa with the addition of a sodium adduct) and the m/z of Nle-YI-(6) aminohexanoic amide and Nle^1-AngIV (internal standards) at 513 and 541, respectively (both with sodium adducts). Samples were introduced using the autosampler and the injection volume was 50 ul. For the microsomal study, the m/z of verapamil was 455, the m/z of piroxicam was 332, and the m/z of 7-ethoxycoumarin was 191.
Pharmacokinetic analysis was performed using data from individual rats from which the mean and standard error of the mean (SEM) were calculated for each group.

[1] = male, Sprague-Dawley, rat, plasma, IV 10 mg/kg, rats, Mean ± SEM

CCCCCC(=O)N[C@@H](Cc1ccc(O)cc1)C(=O)N[C@H](C(=O)NCCCCCC(N)=O)[C@@H](C)CC [Dihexa, N-hexanoic-Tyr-Ile-(6)-aminohexanoic amide] (Hexanoyl-Tyr-Ile-[Ahx]-NH2)
Cp0 (IV 10 mg/kg, rats, Mean ± SEM): 87.3 ± 31.9 µg/mL
KE (IV 10 mg/kg, rats, Mean ± SEM): 0.00007 ± 0.00004 min⁻¹
half-life (male, Sprague-Dawley, rat, plasma, ip, 20 mg/kg, delivered intraperitoneally, Mean+/−SEM, N=4, read-out: half-life (t1/2) (converted)): 8.83 days
half-life (male, Sprague-Dawley, rat, plasma, iv, 10 mg/kg, IV 10 mg/kg, rats, Mean ± SEM, read-out: t½): 12.7 ± 5.41 days
half-life (male, Sprague-Dawley, rat, plasma, iv, 10 mg/kg, IV administration 10 mg/kg, rats, read-out: half-life (t1/2) (converted)): 12.7 days
Vd [1]: 54.4 ± 14.8 L/kg
clearance [1]: 0.156 ± 0.042 L/h/kg
AUC(0-inf) (male, Sprague-Dawley, rat, plasma, IV 10 mg/kg, rats, Mean ± SEM, N = 3): 74.5 µg·h/mL
